Active and inactive are the calls of the source.
Legend:
Cytochrome P450 2C9 = Cytochrome P450 2C9 (Homo sapiens, UniProt P11712); conditions: Potency
[1] = target: T1, Oxysterols receptor LXR-beta (Homo sapiens, UniProt P55055); assay type: functional, cell-based;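 note: agonist activity at LXR measured by a cell-based luminescence readout across a dose range, run as a counterscreen for daf-12 agonists; potency for activation of Gal4-LXR reporter so compounds are agonists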
T1 sequence (P55055 whole entry): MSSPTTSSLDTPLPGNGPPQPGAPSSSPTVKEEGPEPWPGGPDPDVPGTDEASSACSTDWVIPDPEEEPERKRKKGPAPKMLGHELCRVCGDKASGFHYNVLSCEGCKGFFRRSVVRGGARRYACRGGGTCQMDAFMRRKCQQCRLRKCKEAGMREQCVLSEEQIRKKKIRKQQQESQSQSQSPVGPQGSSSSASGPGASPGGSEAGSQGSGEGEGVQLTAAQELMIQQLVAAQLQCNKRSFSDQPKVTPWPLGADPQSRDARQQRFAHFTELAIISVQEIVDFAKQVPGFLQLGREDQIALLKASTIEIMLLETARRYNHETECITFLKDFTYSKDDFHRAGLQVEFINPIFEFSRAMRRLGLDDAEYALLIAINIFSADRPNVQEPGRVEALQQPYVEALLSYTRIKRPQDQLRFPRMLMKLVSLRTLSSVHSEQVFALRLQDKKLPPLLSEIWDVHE

[2] = HEK293 cell cytotoxicity, dose response, cytotoxicity control, plate reader, cherry-picked samples (AID 743446); assay type: functional, cell-based
[3] = target: Luciferin 4-monooxygenase (Photinus pyralis, UniProt P08659); test: firefly luciferase enzyme inhibitors, dose response, biochemical, luminescence (AID 1891)
Chain of Luciferin 4-monooxygenase (P08659 whole entry): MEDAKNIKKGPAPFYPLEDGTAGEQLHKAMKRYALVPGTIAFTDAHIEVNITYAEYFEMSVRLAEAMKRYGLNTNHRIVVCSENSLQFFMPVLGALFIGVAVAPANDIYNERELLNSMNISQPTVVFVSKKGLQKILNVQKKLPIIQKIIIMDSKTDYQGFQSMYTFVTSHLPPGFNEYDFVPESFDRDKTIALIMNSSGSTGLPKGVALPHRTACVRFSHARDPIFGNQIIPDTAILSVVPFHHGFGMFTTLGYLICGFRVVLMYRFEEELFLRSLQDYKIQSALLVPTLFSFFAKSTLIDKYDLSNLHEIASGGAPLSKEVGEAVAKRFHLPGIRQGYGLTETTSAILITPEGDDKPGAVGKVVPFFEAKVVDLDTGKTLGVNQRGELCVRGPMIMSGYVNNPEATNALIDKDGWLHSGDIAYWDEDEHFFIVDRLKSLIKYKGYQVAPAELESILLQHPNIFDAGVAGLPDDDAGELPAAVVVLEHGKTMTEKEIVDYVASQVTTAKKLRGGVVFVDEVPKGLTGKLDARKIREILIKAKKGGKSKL

[4] = cytotoxicity toward DRD oncogenic fibroblasts, dose response, cell-based, non-viral oncogenic, luminescence (AID 1934); assay type: functional; conditions: Homo sapiens
BJ [5] = test: cytotoxicity toward BJ-TERT fibroblasts, dose response, cell-based, RAS-independent, luminescence (AID 1933); assay type: functional; conditions: Homo sapiens
INS1 = test: beta cell apoptosis inhibitors, cytokine rescue, dose response, luminescence, retest (AID 449756); assay type: functional, cell-based; conditions: Rattus norvegicus;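 note: cell death triggered by IL-1 beta plus TNF-alpha plus IFN-gamma mixture; protective hits raise ATP signal compared with cytokine alone wells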
[6] = HepG2 cell cytotoxicity, dose response, cytotoxicity control, plate reader, cherry-pick, antagonist series (AID 743416); assay type: functional, cell-based
[7] = A549 cell cytotoxicity, dose response, cytotoxicity control, plate reader, cherry-pick, antagonist series (AID 743412); assay type: functional, cell-based
[8] = MC4R antagonists, dose response, counter-screen for LGR2 antagonist project, cell-based, plate reader, cherry pick (AID 743444); assay type: functional;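 note: transfected HEK 293 cells stimulated with alpha-MSH peptide; potency of inhibitors of the alpha-MSH evoked signal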
BJ [9] = test: cytotoxicity toward Ras-transformed BJeLR fibroblasts, dose response, cell-based, alamar blue fluorescence, cherrypicked samples (AID 2631); assay type: functional; conditions: Homo sapiens;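 note: confirmatory dose-response assay in RAS-dependent BJ fibroblasts engineered with TERT, LT and ST, with cytotoxicity read by fluorescence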
[10] = Luminescence Cell-Based Dose Confirmation HTS to Identify Inhibitors of Platelet Dense Granule Release. [Related pubchem assays: 1663 (Primary HTS), 1678 (Summary of Project)]; assay type: functional
[11] = LGR2 antagonists, dose response, cell-based, HEK293, CRE-luciferase reporter, cherry pick, set 2 (AID 743343); assay type: functional;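 note: transfected cells were stimulated with diluted bursicon conditioned medium after compound addition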
BJ [12] = test: cytotoxicity toward BJ-TERT-LT-ST fibroblasts, dose response, cell-based, RAS-independent, luminescence (AID 1935); assay type: functional; conditions: Homo sapiens;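 note: BJ fibroblasts immortalized with TERT plus LT and ST oncogenes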
[13] = target: T2, Serine/threonine-protein phosphatase (Candida dubliniensis (strain CD36 / CBS 7987 / NCPF 3949 / NRRLY-17841) (Yeast), UniProt B9W6M3); test: calcineurin pathway inhibitors in yeast reporter, dose response, S. cerevisiae, CDRE-lacZ, luminescence, secondary (AID 2388); assay type: functional, cell-based;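 note: yeast reporter cells carrying a calcineurin-responsive lacZ construct stimulated with calcium chloride; luminescent beta-galactosidase reporter signal in whole cells rather than isolated phosphatase activity; potency for inhibition where a drop in reporter signal means calcineurin blockade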
T2 sequence (B9W6M3 whole entry): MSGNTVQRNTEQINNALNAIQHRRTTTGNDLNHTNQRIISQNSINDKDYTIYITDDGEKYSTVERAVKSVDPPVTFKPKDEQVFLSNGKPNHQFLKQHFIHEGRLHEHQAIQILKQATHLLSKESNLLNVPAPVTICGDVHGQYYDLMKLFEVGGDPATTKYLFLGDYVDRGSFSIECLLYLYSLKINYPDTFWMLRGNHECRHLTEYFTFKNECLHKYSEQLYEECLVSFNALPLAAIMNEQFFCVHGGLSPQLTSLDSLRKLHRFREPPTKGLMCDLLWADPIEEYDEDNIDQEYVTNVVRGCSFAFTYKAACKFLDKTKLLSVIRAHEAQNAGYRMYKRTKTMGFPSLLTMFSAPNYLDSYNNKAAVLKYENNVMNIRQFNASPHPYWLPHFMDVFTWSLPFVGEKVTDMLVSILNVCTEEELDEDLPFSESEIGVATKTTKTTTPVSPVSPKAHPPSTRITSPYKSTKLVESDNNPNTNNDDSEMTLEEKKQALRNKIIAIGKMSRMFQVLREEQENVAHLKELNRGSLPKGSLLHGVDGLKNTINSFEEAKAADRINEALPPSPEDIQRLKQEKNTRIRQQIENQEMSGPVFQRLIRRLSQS

[14] = C. albicans growth with fluconazole, confirmation, fluorescence, retest (AID 2467); assay type: functional, cell-based
[15] = target: ATP-dependent molecular chaperone HSP82 (Candida albicans (strain WO-1) (Yeast), UniProt C4YTQ8); test: loss of DOC-induced GRE-beta-galactosidase reporter signal, dose response, Hsp90 inhibitor project, S. cerevisiae, luminescence (AID 2400); assay type: functional, cell-based;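 note: beta-galactosidase luminescence from glucocorticoid response element reporter as proxy for Hsp90 function; inhibitor potency where signal loss means Hsp90 inhibition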
Chain of ATP-dependent molecular chaperone HSP82 (C4YTQ8 whole entry): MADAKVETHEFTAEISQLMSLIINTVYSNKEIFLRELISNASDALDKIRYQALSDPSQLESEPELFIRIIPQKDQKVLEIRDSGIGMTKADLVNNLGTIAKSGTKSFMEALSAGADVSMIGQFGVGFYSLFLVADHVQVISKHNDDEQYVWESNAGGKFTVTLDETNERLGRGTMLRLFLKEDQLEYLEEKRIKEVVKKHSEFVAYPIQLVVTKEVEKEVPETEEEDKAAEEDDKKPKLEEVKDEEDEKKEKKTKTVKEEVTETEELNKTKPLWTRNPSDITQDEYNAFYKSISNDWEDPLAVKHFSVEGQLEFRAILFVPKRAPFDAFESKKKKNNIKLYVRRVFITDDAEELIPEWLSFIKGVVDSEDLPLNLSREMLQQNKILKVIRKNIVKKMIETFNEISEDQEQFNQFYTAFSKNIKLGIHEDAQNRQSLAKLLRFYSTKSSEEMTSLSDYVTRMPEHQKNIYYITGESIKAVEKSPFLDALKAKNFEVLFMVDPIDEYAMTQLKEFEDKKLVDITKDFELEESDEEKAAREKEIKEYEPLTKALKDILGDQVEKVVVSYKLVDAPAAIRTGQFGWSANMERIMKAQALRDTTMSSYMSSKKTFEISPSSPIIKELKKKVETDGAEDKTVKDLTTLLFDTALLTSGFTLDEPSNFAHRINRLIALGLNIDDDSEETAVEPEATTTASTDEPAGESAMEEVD

[16] = target: SWI/SNF-related matrix-associated actin-dependent regulator of chromatin subfamily A member 2 (Homo sapiens, UniProt P51531); test: Luminescence-based cell-based high throughput dose response assay to identify activators of the function of SWI/SNF related, matrix associated, actin dependent regulator of chromatin, subfamily a, member 2 (SMARCA2, BRM).; assay type: functional
[17] = NIH-3T3 fibroblast cytotoxicity, dose response, cytotoxicity control, cell-based, fluorescence, Alamar Blue, secondary assay (AID 2327); assay type: functional;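 note: NIH-3T3 mouse fibroblasts cultured with fluconazole at 8 µg/mL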
[18] = Counterscreen for activators of the function of SWI/SNF related, matrix associated, actin dependent regulator of chromatin, subfamily a, member 2 (SMARCA2, BRM): Luminescence-based cell-based high throughput dose response assay to identify non-selective compounds using the VP16 reporter assay.; assay type: functional
[19] = human group III sPLA2 inhibitors, dose response, biochemical, QFRET, IC50 (AID 743457);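 note: green fluorescence rise as the enzyme cleaves BODIPY PC-A2 in liposomes; potency for inhibition of the enzyme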
[20] = target: T1, Oxysterols receptor LXR-beta; test: LXR agonists, Gal4 luciferase reporter, dose response, counter-screen for ssDAF-12 agonist project, cell-based, luminescence, HEK293, S. stercoralis campaign (AID 720737); assay type: functional; conditions: read-out: IC50 (the source's name)
[21] = Luminescence-based cell-based high throughput dose response assay to identify activators of the DAF-12 from the parasite S. stercoralis (ssDAF-12).; assay type: functional
[22] = microbe, parasite or virus in culture; assay type: functional; conditions: Mycobacterium tuberculosis
[23] = CEM21 lymphoblast cell cytotoxicity, dose response, cytotoxicity control for viral fusion inhibitor project, CellTiter-Glo luminescence, cherry-picked (AID 652042); assay type: functional, cell-based;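 note: potency for signal decrease meaning cytotoxicity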
[24] = Luminescence Cell-Based Dose Retest to Confirm Inhibitors of Cancer Stem Cells. [Related pubchem assays (depositor defined):AID2717, AID2721]; assay type: functional; conditions: Homo sapiens
[25] = inhibitors of clade B AD8 Env fusion, dose response, cell-based, cherry-pick (AID 652062); assay type: functional;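 note: luciferase signal from cell-cell fusion driven by HIV-1 clade B AD8 Env; potency is for inhibitors of fusion seen as a drop in luminescence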
[26] = inhibitors of HIV Env-driven cell fusion, dose response, cherry-pick (AID 652057); assay type: functional, cell-based
[27] = ZM109 Env clade C HIV-1 fusion inhibitors, dose response, HeLa effector, CEM target cells, luciferase, cherry-pick (AID 652058); assay type: functional, cell-based
[28] = IGROV1 ovarian cancer cell cytotoxicity, dose response, PAX8 inhibitor project, plate reader, dry powder samples (AID 743043); assay type: functional, cell-based; conditions: IGROV-1
Paired box protein Pax-8 = Paired box protein Pax-8 (Homo sapiens, UniProt Q06710); test: inhibitors of PAX8-driven TPO luciferase reporter, dose response, RMG-I cells, cherry-pick (AID 687027); assay type: functional, cell-based;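 note: luciferase reporter driven by Pax8 target thyroperoxidase promoter measured by SteadyGlo luminescence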
Chain of Paired box protein Pax-8 (Q06710 whole entry): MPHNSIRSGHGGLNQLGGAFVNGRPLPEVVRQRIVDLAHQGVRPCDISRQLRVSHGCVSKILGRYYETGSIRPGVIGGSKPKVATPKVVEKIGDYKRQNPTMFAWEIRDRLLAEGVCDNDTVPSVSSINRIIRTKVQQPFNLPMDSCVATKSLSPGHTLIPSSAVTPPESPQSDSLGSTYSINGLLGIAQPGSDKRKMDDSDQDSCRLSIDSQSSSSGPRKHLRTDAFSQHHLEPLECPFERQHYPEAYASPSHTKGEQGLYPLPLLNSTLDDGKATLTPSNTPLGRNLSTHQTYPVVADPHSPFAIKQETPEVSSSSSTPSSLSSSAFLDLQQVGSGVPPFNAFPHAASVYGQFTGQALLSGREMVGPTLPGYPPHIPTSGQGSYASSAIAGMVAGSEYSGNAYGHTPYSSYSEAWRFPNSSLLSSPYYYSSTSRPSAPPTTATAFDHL

[29] = cytotoxicity in OVCAR8 ovarian cancer cells, dose response, PAX8 project, cell-based, plate reader, dry powder samples (AID 743197); assay type: functional; conditions: OVCAR-8
[30] = NIH:OVCAR-3 ovarian cancer cell cytotoxicity, dose response, PAX8 inhibitor project, plate reader, dry powder samples (AID 743044); assay type: functional, cell-based
[31] = non-specific cell cytotoxicity, dose response, cytotoxicity control for PAX8 inhibitor project, plate reader, dry powder samples (AID 743021); assay type: functional, cell-based
[32] = target: Peroxisome proliferator-activated receptor gamma/Nuclear receptor coactivator 1 (Homo sapiens, UniProt P37231); assay type: functional;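 note: agonist potency as compounds enhance coactivator SRC-1 recruitment to PPARgamma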
Chain of Peroxisome proliferator-activated receptor gamma/Nuclear receptor coactivator 1 (P37231 whole entry): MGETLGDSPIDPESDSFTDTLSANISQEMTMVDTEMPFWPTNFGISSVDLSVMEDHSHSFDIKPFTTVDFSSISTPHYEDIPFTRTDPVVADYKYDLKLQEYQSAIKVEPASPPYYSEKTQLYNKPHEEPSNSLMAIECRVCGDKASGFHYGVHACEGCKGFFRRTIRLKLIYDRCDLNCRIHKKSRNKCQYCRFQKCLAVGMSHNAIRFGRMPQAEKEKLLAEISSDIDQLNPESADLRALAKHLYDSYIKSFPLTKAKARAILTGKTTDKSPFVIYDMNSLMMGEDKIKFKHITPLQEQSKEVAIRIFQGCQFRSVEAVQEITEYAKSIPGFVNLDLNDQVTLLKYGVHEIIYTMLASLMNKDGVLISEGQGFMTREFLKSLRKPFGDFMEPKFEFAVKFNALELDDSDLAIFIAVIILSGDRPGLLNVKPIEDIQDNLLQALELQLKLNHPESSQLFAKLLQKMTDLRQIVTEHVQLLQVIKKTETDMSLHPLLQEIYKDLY
Chain of Peroxisome proliferator-activated receptor gamma/Nuclear receptor coactivator 1 (Q15788 whole entry, further chain): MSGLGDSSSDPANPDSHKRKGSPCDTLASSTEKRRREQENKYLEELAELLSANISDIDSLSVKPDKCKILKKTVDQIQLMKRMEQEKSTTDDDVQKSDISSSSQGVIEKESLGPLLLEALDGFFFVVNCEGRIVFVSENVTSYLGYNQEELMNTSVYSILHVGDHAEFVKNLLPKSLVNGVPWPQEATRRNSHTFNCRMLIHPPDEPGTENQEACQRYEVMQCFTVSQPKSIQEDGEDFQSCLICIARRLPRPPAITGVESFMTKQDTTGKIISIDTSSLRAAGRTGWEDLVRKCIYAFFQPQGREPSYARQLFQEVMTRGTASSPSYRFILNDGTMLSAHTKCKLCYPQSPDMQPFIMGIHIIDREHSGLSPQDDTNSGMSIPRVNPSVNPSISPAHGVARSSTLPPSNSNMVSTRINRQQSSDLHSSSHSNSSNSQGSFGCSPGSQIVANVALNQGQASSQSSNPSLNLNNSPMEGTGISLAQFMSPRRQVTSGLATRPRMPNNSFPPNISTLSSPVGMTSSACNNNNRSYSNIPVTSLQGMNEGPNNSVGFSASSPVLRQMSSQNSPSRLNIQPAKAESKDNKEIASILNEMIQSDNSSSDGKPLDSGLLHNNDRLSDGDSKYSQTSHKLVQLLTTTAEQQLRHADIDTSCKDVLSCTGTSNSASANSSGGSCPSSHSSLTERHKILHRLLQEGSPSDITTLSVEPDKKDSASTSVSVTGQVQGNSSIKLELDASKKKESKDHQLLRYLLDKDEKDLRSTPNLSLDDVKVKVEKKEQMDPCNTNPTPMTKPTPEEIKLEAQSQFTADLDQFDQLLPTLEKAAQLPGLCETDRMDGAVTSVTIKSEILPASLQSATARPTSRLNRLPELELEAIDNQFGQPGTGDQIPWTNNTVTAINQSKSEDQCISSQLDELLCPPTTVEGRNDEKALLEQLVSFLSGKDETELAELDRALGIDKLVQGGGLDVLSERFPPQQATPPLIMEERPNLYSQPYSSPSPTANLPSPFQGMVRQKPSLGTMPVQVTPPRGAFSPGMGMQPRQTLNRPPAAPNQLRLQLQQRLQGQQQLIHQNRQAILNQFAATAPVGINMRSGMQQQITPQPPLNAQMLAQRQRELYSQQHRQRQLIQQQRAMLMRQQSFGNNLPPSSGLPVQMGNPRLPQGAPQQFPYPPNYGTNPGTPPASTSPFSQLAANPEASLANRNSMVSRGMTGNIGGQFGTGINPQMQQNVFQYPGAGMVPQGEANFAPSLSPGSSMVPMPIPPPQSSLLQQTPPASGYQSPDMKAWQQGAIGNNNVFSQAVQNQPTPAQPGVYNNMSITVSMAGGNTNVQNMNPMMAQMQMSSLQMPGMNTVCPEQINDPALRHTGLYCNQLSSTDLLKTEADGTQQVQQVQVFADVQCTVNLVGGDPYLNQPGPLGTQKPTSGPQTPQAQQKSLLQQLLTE

Cytochrome P450 2D6 = Cytochrome P450 2D6 (Homo sapiens, UniProt P10635);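 note: CYP2D6 member of a cytochrome P450 panel assay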
Chain of Cytochrome P450 2D6 (P10635 whole entry): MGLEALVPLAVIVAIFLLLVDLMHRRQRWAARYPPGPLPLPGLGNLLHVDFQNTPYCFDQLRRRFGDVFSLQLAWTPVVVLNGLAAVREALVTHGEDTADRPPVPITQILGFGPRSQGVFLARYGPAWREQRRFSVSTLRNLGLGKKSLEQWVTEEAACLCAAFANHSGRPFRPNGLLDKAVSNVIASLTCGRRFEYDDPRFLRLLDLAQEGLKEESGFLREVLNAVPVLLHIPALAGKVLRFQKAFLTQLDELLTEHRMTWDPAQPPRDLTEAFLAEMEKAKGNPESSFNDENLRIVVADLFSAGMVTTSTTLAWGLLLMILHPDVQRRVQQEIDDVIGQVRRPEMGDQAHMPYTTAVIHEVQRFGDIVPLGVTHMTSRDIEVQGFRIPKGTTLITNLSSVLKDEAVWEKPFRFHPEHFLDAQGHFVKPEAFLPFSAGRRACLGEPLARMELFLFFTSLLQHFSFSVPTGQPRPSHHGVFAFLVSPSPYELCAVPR

[33] = target: Peroxisome proliferator-activated receptor gamma/Nuclear receptor coactivator 3 (Homo sapiens, UniProt P37231); assay type: functional;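 note: agonist potency for raising coactivator recruitment to the receptor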
[34] = target: Peroxisome proliferator-activated receptor gamma/Nuclear receptor coactivator 2 (Homo sapiens, UniProt P37231); assay type: functional;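 note: agonist potency for raising coactivator recruitment to the receptor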

Chain of Cytochrome P450 2C9 (P11712 whole entry, the tested form may be a part): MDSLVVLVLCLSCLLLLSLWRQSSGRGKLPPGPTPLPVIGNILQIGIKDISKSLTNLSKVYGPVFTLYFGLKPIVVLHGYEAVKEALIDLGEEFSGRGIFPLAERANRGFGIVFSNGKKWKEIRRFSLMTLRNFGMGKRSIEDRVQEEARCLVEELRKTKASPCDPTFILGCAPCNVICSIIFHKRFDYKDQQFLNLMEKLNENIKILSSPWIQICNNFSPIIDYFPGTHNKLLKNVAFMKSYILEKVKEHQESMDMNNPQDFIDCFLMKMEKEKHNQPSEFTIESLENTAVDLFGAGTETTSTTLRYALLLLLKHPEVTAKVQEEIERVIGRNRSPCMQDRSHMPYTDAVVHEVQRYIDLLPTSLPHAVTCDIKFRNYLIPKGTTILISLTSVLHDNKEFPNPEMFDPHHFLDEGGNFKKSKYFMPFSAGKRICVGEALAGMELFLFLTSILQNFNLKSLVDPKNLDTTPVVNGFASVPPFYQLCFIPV

CC(C)(C)c1cc(O)ccc1O [E319]
AC50 (Cytochrome P450 2C9): 7.94 µM (inconclusive)

CN(C)c1ccc2c(=O)c3ccccc3oc2n1
EC50 [1]: > 67.6 µM (inactive)

Clc1ccccc1Nc1nnc(-c2ccncc2)s1
EC50 [1]: > 67.5 µM (inactive)
AC50 [2]: 4.19 µM (active)
EC50 [3]: 0.799 µM (active)
EC50 [4]: 5.43 µM (active)
EC50 (BJ [5]): 7.07 µM (active)
AC50 (INS1): 4.99 µM (active)
AC50 [6]: 8.92 µM (active)
AC50 [7]: 4.79 µM (active)
AC50 [8]: 8 µM (active)
EC50 (BJ [9]): > 133 µM (inactive)
EC50 [10]: 2.56 µM (active)
AC50 [11]: 5.65 µM (active)
EC50 (BJ [12]): > 150 µM (inconclusive)

CC(=O)c1sc(NC(=O)CCS(=O)(=O)c2ccccc2)nc1C
EC50 [13]: > 180 µM (inactive)
EC50 [14]: 0.691 µM (active)
EC50 [15]: > 150 µM (inactive)
EC50 [16]: > 91.1 µM (inactive)
EC50 [17]: > 150 µM (inactive)
EC50 [18]: > 91.1 µM (inactive)

CCCCOc1ccc(CSC(=N)N)cc1Cl
IC50 [19]: > 122 µM (inactive)

Cc1c(C(=O)Nc2nccs2)oc2ccccc12
EC50 [1]: > 67.6 µM (inactive)
EC50 [20]: > 67.6 µM (inactive)
IC50 [21]: > 67.6 µM (inactive)

CCOC(=O)[C@@H]1[C@H]2COc3cc(OC)ccc3[C@H]2N2C(=O)N(c3ccc(C(F)(F)F)cc3)C(=O)[C@]12C
CC50 [22]: 13.2 µM (active)
AC50 [23]: 27.7 µM (active)
AC50 [24]: 3.05 µM (active)
AC50 [25]: 25 µM (active)
AC50 (INS1): 7.32 µM (active)
AC50 [26]: 27.3 µM (active)
AC50 [27]: 38.8 µM (active)

C[C@H](CO)N1C[C@H](C)[C@@H](CN(C)S(=O)(=O)c2cccs2)OCCCC[C@H](C)Oc2ccc(NS(=O)(=O)c3ccc(Cl)cc3)cc2C1=O
AC50 [28]: 66.4 µM (active)
AC50 (Paired box protein Pax-8): 3.86 µM (active)
AC50 [29]: > 70 µM (inactive)
AC50 [30]: 29.4 µM (active)
AC50 [31]: 54.6 µM (active)

O=C(CSc1nnc2c3ccccc3c3ccccc3c2n1)Nc1ccccc1
EC50 [32]: 31.7 µM (not active)
AC50 (Cytochrome P450 2D6): 7.94 µM (inconclusive)
EC50 [33]: 39.1 µM (not active)
EC50 [34]: 28.6 µM (not active)

From ChEMBL document CHEMBL1201862, “PubChem BioAssay data set” (2004)
